Data: US12252524B2, “GIP/GLP1 co-agonist compounds” (Eli Lilly and Company, priority 2018, dated 2025)
Numbered stars: 1 amine (or outer) side, 2 acyl side, 3 side chain; on linkers, the order of the positions; unused ones are H or OH. Square brackets hold non-standard residues; d marks the D form. Side chains are listed from the residue outwards. Peptide text beside a SMILES is read from it. * marks the point of attachment. C20 diacid = O=C(O)CCCCCCCCCCCCCCCCCCC(=O)*; αMePhe(2-F) = C[C@](N)(Cc1ccccc1F)C(=O)O; γGlu = O=C(O)[C@H](CCC(=O)[*:2])N[*:1]; αMeF = C[C@](N)(Cc1ccccc1)C(=O)O; αMeL = CC(C)C[C@](C)(N)C(=O)O; AEEA = NCCOCCOCC(=O)O; Aib = CC(C)(N)C(=O)O

How the values were obtained:
human Gcg receptor = biological target: T1, human Gcg receptor (Homo sapiens, UniProt P47871); assay: [125I]-Glucagon binding (SPA), human Gcg receptor; conditions: read-out: hGLcgR Ki, nM (SEM, n)
T1 construct: expressed in transfected cells; crude membranes
Summary of the method: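 Crude membranes from cells expressing the receptor, prepared by hypotonic lysis in 50 mM Tris HCl pH 7.5 with protease inhibitors, homogenization and differential centrifugation, were used in a WGA-bead SPA. Binding buffer: 25 mM HEPES pH 7.4, 2.5 mM CaCl2, 1 mM MgCl2, bacitracin, Tween-20.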

human GIP receptor = biological target: T2, human GIP receptor (Homo sapiens, UniProt P48546); assay: [125I]-GIP binding (SPA), human GIP receptor; conditions: read-out: hGIPR Ki, nM (SEM, n)
T2 construct: expressed in transfected cells; crude membranes
T2 sequence (P48546 22-466): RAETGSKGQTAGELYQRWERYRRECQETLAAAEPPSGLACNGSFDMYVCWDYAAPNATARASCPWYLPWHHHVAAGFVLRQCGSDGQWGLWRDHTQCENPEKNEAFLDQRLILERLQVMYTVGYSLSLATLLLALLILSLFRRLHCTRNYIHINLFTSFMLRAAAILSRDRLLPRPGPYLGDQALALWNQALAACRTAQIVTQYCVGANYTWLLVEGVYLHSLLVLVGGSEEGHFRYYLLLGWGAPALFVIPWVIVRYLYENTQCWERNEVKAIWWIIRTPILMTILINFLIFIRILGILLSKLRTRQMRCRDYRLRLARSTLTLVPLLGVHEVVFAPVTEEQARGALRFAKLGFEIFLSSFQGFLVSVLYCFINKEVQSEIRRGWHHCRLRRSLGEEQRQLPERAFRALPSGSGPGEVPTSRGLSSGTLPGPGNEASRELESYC

[1] = biological target: human GLP-1 receptor (GLP-1R) (Homo sapiens, UniProt P43220); assay: cAMP pharmacological functional assay in presence of casein, hGLP-1R; assay type: cell-based; conditions: HEK293 cells expressing hGLP-1R, 0.1% Casein, geometric mean; read-out: hGLP1R cAMP Rel EC50 nM (SEM, n)
[2] = biological target: T3, gastric inhibitory peptide receptor (GIPR) (Homo sapiens, UniProt P48546); assay: cAMP pharmacological functional assay in presence of casein, hGIPR; assay type: cell-based; conditions: HEK293 cells expressing hGIPR, 0.1% Casein, geometric mean; read-out: hGIPR cAMP Rel EC50 nM (SEM, n)
T3 sequence (P48546 22-466): T2 sequence (P48546 22-466)

human GLP-1R = human GLP-1R (Homo sapiens, UniProt P43220); assay: [125I]-GLP-1 binding (SPA), human GLP-1 receptor; design: expressed in transfected cells; crude membranes; conditions: read-out: hGLP1R Ki, (nM) (SEM, n)
Summary of the method: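 Crude-membrane binding assay; one membrane prep included 1 mM MgCl2 and 25 units/ml DNAse I during lysis. Assay buffer at pH 7.4 contains 0.1% (w/v) bacitracin and 0.003% (w/v) TWEEN-20. Ki is reported as geometric mean.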

Chain of human GLP-1R (P43220 24-463): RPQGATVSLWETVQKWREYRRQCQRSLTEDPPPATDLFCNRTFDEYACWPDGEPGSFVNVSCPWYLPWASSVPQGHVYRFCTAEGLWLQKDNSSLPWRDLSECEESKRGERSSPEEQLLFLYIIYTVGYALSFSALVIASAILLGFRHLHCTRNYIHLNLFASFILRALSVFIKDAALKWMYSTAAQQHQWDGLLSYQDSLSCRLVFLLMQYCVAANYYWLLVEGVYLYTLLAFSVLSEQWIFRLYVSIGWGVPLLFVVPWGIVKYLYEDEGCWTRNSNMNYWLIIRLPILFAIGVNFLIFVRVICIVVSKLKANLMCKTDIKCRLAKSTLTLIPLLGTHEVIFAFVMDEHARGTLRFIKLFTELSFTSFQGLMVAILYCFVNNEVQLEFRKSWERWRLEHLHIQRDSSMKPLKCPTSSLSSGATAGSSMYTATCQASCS
Chain of human GLP-1 receptor (GLP-1R) (P43220 24-463): as above
T1 sequence (P47871 26-477): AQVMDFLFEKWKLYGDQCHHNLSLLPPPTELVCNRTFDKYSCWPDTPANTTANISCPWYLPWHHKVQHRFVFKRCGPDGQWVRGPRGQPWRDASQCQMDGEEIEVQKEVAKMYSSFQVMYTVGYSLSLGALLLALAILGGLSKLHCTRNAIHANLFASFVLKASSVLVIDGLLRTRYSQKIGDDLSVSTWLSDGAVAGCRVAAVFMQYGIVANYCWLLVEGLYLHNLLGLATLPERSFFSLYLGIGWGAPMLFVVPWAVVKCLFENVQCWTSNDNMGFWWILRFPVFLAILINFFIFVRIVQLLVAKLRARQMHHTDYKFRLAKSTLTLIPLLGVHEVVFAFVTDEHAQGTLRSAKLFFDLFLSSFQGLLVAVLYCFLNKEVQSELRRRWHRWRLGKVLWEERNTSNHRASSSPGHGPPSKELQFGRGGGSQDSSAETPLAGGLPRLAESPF

Structure (SMILES)	Ki (human Gcg receptor)	Ki (human GIP receptor)	EC50 [1]	EC50 [2]	Ki (human GLP-1R)
CC[C@H](C)[C@H](NC(=O)[C@H](CC(C)C)NC(=O)[C@H](Cc1ccc(O)cc1)NC(=O)[C@@H](CCC(=O)O)NC(=O)[C@@H](NC(=O)[C@H](Cc1ccccc1)NC(=O)[C@H](CCC(=O)O)NC(=O)C(C)(C)NC(=O)[C@H](CCC(N)=O)NC(=O)[C@H](C)NC(=O)[C@H](CCCCNC(=O)COCCOCCNC(=O)COCCOCCNC(=O)CC[C@H](NC(=O)CCCCCCCCCCCCCCCCCCC(=O)O)C(=O)O)NC(=O)[C@H](CCCCN)NC(=O)[C@H](CC(=O)O)NC(=O)[C@H](CC(C)C)NC(=O)[C@](C)(CC(C)C)NC(=O)[C@@H](NC(=O)[C@H](CO)NC(=O)[C@H](Cc1ccc(O)cc1)NC(=O)[C@H](CC(=O)O)NC(=O)[C@H](CO)NC(=O)[C@@H](NC(=O)[C@](C)(Cc1ccccc1)NC(=O)[C@@H](NC(=O)CNC(=O)[C@H](CCC(=O)O)NC(=O)C(C)(C)NC(=O)[C@@H](N)Cc1ccc(O)cc1)[C@@H](C)O)[C@@H](C)O)[C@@H](C)CC)[C@@H](C)CC)C(=O)N[C@@H](CCC(=O)O)C(=O)NCC(=O)NCC(=O)N1CCC[C@H]1C(=O)N[C@@H](CO)C(=O)N[C@@H](CO)C(=O)NCC(N)=O [Example 228] (H-Y[Aib]EGT[αMeF]TSDYSI[αMeL]LDKK([AEEA-AEEA-γGlu-C20 diacid])AQ[Aib]EFI[dE]YLIEGGPSSG-NH2)	182 nM	0.028 nM	0.0282 nM	0.0503 nM	2.43 nM
CC[C@H](C)[C@H](NC(=O)[C@H](CC(C)C)NC(=O)[C@H](Cc1ccc(O)cc1)NC(=O)[C@@H](CCC(=O)O)NC(=O)[C@@H](NC(=O)[C@H](Cc1ccccc1)NC(=O)[C@H](CCC(=O)O)NC(=O)C(C)(C)NC(=O)[C@H](CCC(N)=O)NC(=O)[C@H](C)NC(=O)[C@H](CCCCNC(=O)COCCOCCNC(=O)COCCOCCNC(=O)CC[C@H](NC(=O)CCCCCCCCCCCCCCCCCCC(=O)O)C(=O)O)NC(=O)[C@H](CCC(=O)O)NC(=O)[C@H](CC(=O)O)NC(=O)[C@H](CC(C)C)NC(=O)[C@](C)(CC(C)C)NC(=O)[C@H](CO)NC(=O)[C@H](Cc1ccc(O)cc1)NC(=O)[C@H](CC(=O)O)NC(=O)[C@H](CO)NC(=O)[C@@H](NC(=O)[C@](C)(Cc1ccccc1F)NC(=O)[C@@H](NC(=O)CNC(=O)[C@H](CCC(=O)O)NC(=O)C(C)(C)NC(=O)[C@@H](N)Cc1ccc(O)cc1)[C@@H](C)O)[C@@H](C)O)[C@@H](C)CC)C(=O)N[C@@H](CCC(=O)O)C(=O)NCC(=O)NCC(=O)N1CCC[C@H]1C(=O)N[C@@H](CO)C(=O)N[C@@H](CO)C(=O)NCC(=O)N[C@@H](C)C(=O)N1CCC[C@H]1C(=O)N1CCC[C@H]1C(=O)N1CCC[C@H]1C(=O)N[C@@H](CO)C(N)=O [Example 229] (H-Y[Aib]EGT[αMePhe(2-F)]TSDYS[αMeL]LDEK([AEEA-AEEA-γGlu-C20 diacid])AQ[Aib]EFI[dE]YLIEGGPSSGAPPPS-NH2)	> 1100 nM	2.47 nM	2.11 nM	4.79 nM	36.2 nM
